Test results: patent US20230111180A1, “HYDROGEN CONTAINING COMPOSITION AND METHODS OF USING THE SAME” (MiZ Company Limited, priority 2017, published 2023)
Read-outs that look alike come from different tables or passages of the source.

Legend:
[1] = system: ROS formation in the brains; conditions: 6 days after blast exposure; 4% hydrogen gas 6 hours per day
Protocol: (§1) All animal experiments relating to the present invention were conducted according to the institutional ethical guidelines for animal experiments of the National Defense Medical College and these animal experiments were approved by the Committee for Animal Research at the National Defense Medical College. Inbred C57BL/6 mice were used in this experiment. Age-matched male littermate mice were used in all experiments. The mice were housed in a breeding room with a 12-h light/dark cycle and a room temperature maintained at 24±1° C. The mice had ad libitum access to water and food.
(§2) The mice at 10 weeks of age were anesthetized by intraperitoneal administration of mixed anesthetic agents containing medetomidine hydrochloride (0.3 mg/kg, Domitol, Meiji Seika Pharma Co., Ltd.), midazolam (4.0 mg/kg, Dormice, Astellas Pharma Inc.), and butorphanol (5.0 mg/kg, Vetorphale, Meiji Seika Pharma Co., Ltd.). […] Following blast exposure, mice were allowed to recover from anesthesia and were subsequently returned to their home cage.
(§3) Mice were placed in a humid chamber for hydrogen gas inhalation for 6 hours per day. Hydrogen gas diluted by air (4%) was supplied to the chamber from a hydrogen gas supply apparatus (MiZ Company Limited) at a feeding rate of 2 L/min. The mice had ad libitum access to water and food in the chamber.

[2] = system: PTSD caused by abuse in early childhood; conditions: for Total score (PCL-5): 7% hydrogen gas inhaled, before inhalation score 66
Protocol: Adult women who had lived for 10 years or longer after the onset of PTSD caused by abuse in early childhood were subjected to inhalation of hydrogen gas with a concentration of 7% by using a hydrogen generator (MHG-2000α, produced by MiZ Company Limited) for at least 1 hour (up to 4 hours) per day over 7 weeks. Each of the subjects had been regularly using an analgesic prescribed by a physician to treat pain, and continued the regular use also during the period of inhalation.
Symptoms of PTSD were quantified through interviews by a physician with the PTSD Checklist for DSM-5 (PCL-5; published by the National Center for PTSD).

[3] = at clinical concentrations, previous studies; cited from earlier work
[4] = system: PTSD due to physical abuse in early childhood and later stages; conditions: 7% hydrogen gas inhaled, before inhalation score 61
Protocol: (§4) Adult women who had experienced the onset of PTSD due to an intense psychological shock received through physical abuse in early childhood and later stages were subjected to inhalation of hydrogen gas with a concentration of 7% by using a hydrogen generator (MHG-2000α, produced by MiZ Company Limited) for 1 to 3 hours per day over 3 weeks. Each of the subjects had been regularly using an analgesic prescribed by a physician to treat pain, and continued the regular use also during the period of inhalation.
(§5) Symptoms of PTSD were quantified through interviews by a physician.

[5] = system: mice exposed to blast (bmTBI)
Protocol: as §1, §2, §3
Behavioral analysis was performed 7 days after the blast exposure. All mice used in the behavioral analysis were age-matched male littermates. The behavior of each mouse was monitored and analyzed using a computer-operated video tracking system (SMART, Panlab, Barcelona, Spain), unless otherwise stated. In tests using an apparatus with arms, arm entry was counted when all four legs of a mouse entered each arm. The apparatus was washed after each test. Behavioral studies were performed for mice at 11 to 12 weeks of age.

[6] = system: mice exposed to blast (bmTBI); remark: listed apart in the source
Protocol: as §1, with “food. […]” for “food.”
Behavioral analysis was performed 7 days after the blast exposure. […] The behavior of each mouse was monitored and analyzed using a computer-operated video tracking system (SMART, Panlab, Barcelona, Spain), unless otherwise stated. In tests using an apparatus with arms, arm entry was counted when all four legs of a mouse entered each arm. […]
A sociability test was performed by using a conventional method. Interaction time with another living mouse versus a stuffed mouse was measured in an open field using two cylinder cages allowing olfactory and minimal tactile feelings. […]

[7] = system: PTSD due to an intense psychological shock received in military operations; conditions: for Total score: 7% hydrogen gas inhaled, before inhalation score 49
Protocol: as §4, with “received” for “received through physical abuse”, “military operations” for “early childhood and later stages”, “at least 2 hours (up” for “1”, “4 hours)” for “3 hours”
as §5

[8] = 7 days after blast, 4% hydrogen gas 6 hours per day for 7 days, one-way ANOVA p>0.05

## [HH] [hydrogen gas]
[1]
  ROS in the brains (ethidium fluorescence) versus blast exposure alone: significantly reduced
[2]; 7% hydrogen gas, 1 to 4 hours per day over 7 weeks
  Symptoms of PTSD after the initiation of inhalation: tended to ameliorate
[2]; Week 1, average 2.2 H/day
  Total score (PCL-5): 55
[2]; Week 2, average 3.8 H/day
  Total score (PCL-5): 41
[2]; Week 4, average 2.8 H/day
  Total score (PCL-5): 41
[2]; Week 7, average 1.1 H/day
  Total score (PCL-5): 27
[3]
  Side effects of hydrogen: no serious side effect
[4]; Week 1, average 3 H/day
  Total score: 62
[4]; Week 2, average 2 H/day
  Total score: 60
[4]; Week 4, average 1 H/day
  Total score: 49
[4]; Week 7, average 2 H/day
  Total score: 53
[4]; Week 10, average 2.15 H/day
  Total score: 50
[5]; [8]
  Activity, total distance traveled in 10 minutes, versus sham: did not show abnormal activity
  Percentage of time spent in the open arms, comparison of Sham, bmTBI, bmTBI+H2: did not differ significantly
[5]; 7 days after blast, 4% hydrogen gas 6 hours per day for 7 days, two-way ANOVA p>0.05
  Gross motor function, latency on accelerating rotarod: gross motor function was intact
[5]; bmTBI+H2 group versus control, bmTBI increased, one-way ANOVA F=6.94, p=0.0036
  Total immobility time during the 6-minute trial: comparable immobility time to control mice (Sham)
[5]; bmTBI+H2 group versus control, one-way ANOVA F=6.42, p=0.0051
  Latency to the first bout of immobility: latencies comparable to the control (Sham) group
[5]; bmTBI+H2 group, Sham 62.6±1.8%, bmTBI 62.3±3.4%, mean±standard error, p>0.05
  Correct choices (spatial working memory): 60.4±3.4%
[5]; conclusion from tail suspension and forced swim tests
  Depression-like behaviors induced by blast exposure: suppresses depression-like behaviors induced by blast exposure
[5]; one-way ANOVA p>0.05
  Duration of interaction with an inanimate novel object, difference between groups: no difference
  Time required to find the buried food, difference between groups: no difference was found in the olfactory test
[6]; conclusion from sociability, olfactory and novelty tests
  Abnormal social behaviors induced by blast: suppressed the abnormal social behaviors induced by blast
[6]; within bmTBI+H2 group, t-test p>0.05
  Difference between interaction time with living mouse and with stuffed mouse: no significant difference
[7]; 7% hydrogen gas, 2 to 4 hours per day over 3 weeks
  Symptoms of PTSD after the initiation of inhalation: tended to ameliorate
[7]; Week 2, average 4 H/day
  Total score: 16
[7]; Week 3, average 2 H/day
  Total score: 12
